According to patent US9926304B2, “1-(arylmethyl)quinazoline-2,4(1H,3H)-diones as PARP inhibitors and the use thereof” (Impact Therapeutics, Inc., priority 2011, dated 2018):
Where two headings read alike, the source gives them in different places.

Tests used:
[1] = test system: SW620 human colorectal cancer cells; assay: MTT based cell viability assay: potentiation of the growth inhibiting activity of MMS
[2] = test system: BRCA-2 deficient CAPAN-1 human pancreatic cancer cells; assay: MTT based cell viability assay: growth inhibition of BRCA-2 deficient CAPAN-1 cells; details: 240 h, compound alone, 10 day assay
Excerpt: Determination of the cell growth inhibiting activity of 1-(3-(4-(pyrimidin-2-yl)piperazine-1-carbonyl)benzyl)quinazoline-2,4(1H,3H)-dione and analogs on BRCA-2 deficient CAPAN-1 pancreatic duck cancer cells using a MTT based cell viability assay
BRCA-deficient cancer cells are sensitive to PARP inhibition. In the presence of PARP inhibitors, BRCA-deficient cancer cells could not grow and eventually will lead to death of cells. BRCA-2 deficient CAPAN-1 human pancreatic cancer cells were used to test the growth inhibiting activity of substituted 1-(arylmethyl)quinazoline-2,4(1H,3H)-diones. Briefly, CAPAN-1 cells are grown and maintained in IMEM medium supplemented with 20% FBS. The assay takes 10 days to finish. On day 1, 6000 CAPAN-1 cells are seeded to each well of a 96-well plate. The cells are incubated at 37° C. in a cell culture incubator overnight. In the next day, serial dilutions of compounds to be tested and reference compound (AZD2281) were prepared with a 1:3 and 1:10 fashion in DMSO. Ten-fold compound solutions were made by mixing 10 μl DMSO serial dilution solutions with 90 μl fresh growth medium. The cell culture medium was removed and 180 μl fresh media with FBS and 20 μl of compound solutions were added to each well. The final concentration of DMSO was 1%. Cells were then returned to the CO2 cell culture incubator and incubated at 37° C. for two days (day 3 and day 4). On day 5, the same procedure as what was done on day 2 was repeated. Cell culture medium was removed and fresh medium containing serial dilutions of compounds or reference compounds were added. Cells were returned to the CO2 cell culture incubator and incubated for two more days. On day 8, same procedure was repeated again and fresh medium containing the testing compounds or reference compounds were added and incubated for an additional 2 days. On day 10, 20 μl of MTT reagent (5 mg/ml) was added to each well of the cell culture plate and incubated for 4 h. The cell culture media was removed and 100 μl DMSO was added to each well. The 96-well cell culture plates were shaked horizontally for 10 min and readed in a Varioskan Flash plate reader (Thermo Fisher Scientific) at 520 and 690 nm. The obtained 520 nm absorbance readings subtracting corresponding 690 nm reading were analyzed using a commercial graphic software (GraphPad Prism 5) and plotted against the Log scale of the compound concentrations.

[3] = test system: Human breast cancer cell line T47D; assay: Cell based caspase-3 activity assay: potentiation of MMS induced apoptosis; details: T47D cells, 11.1 μg/ml MMS, 24 hours, intracellular caspase-3 activity, read-out: EC50 (nM), potentiation of the apoptosis inducing activity of MMS
Method in brief: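 T47D cells were exposed for 24 h to compound plus a minimally apoptotic MMS dose (medium containing 11.1 μg/ml MMS). Lysates were incubated 3 h at 37 °C with (Ac-DEVD)2-R110 caspase-3 substrate (20 μM in added buffer) and read at ex 496/em 520 nm. EC50 came from a sigmoidal fit of RFU versus log concentration.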

[4] = Homo sapiens, SW-620, 120 h, read-out: IC50 (nM), potentiation of the growth inhibiting activity of MMS, SW620 cells, 1.7 μg/ml MMS, 5 days (120 hours), MTT

| SMILES | IC50 [1, 4] [nM] | IC50 [2] [nM] | EC50 ([3]; Homo sapiens, T47D, 24 h) [nM] | IC50 ([1]; read-out: IC50 (nM), potentiation of the growth inhibiting activity of MMS, SW620 cells, 1.7 μg/ml MMS, 5 days (120 hours), MTT) [nM] | EC50 [3] [nM] |
| --- | --- | --- | --- | --- | --- |
| O=C(c1ccc(Br)cc1)N1CCN(C(=O)c2cccc(Cn3c(=O)[nH]c(=O)c4ccccc43)c2)CC1 [Example 11, 1-(3-(4-(4-Bromobenzoyl)piperazine-1-carbonyl)benzyl)quinazoline-2,4(1H,3H)-dione] | 618 | 1840 | 214 | – | – |
| O=C(c1cccc(Cn2c(=O)[nH]c(=O)c3ccccc32)c1)N1CCN(C(=O)C2CC2)CC1 [Example 15, 1-(3-(4-(Cyclopropylcarbonyl)piperazine-1-carbonyl)benzyl)quinazoline-2,4(1H,3H)-dione] | 666 | > 10000 | 803 | – | – |
| O=C(c1cccc(Cn2c(=O)[nH]c(=O)c3ccccc32)c1)N1CCN(c2cnccn2)CC1 [Example 20, 1-(3-(4-(Pyrazin-2-yl)piperazine-1-carbonyl)benzyl)quinazoline-2,4(1H,3H)-dione] | 391 | 4940 | 139 | – | – |
| O=C(c1cc(Cn2c(=O)[nH]c(=O)c3ccccc32)ccc1F)N1CCN(C(=O)C2CCCC2)CC1 [Example 23, 1-(3-(4-(Cyclopentylcarbonyl)piperazine-1-carbonyl)-4-fluorobenzyl)quinazoline-2,4(1H,3H)-dione] | 8.2 | 160 | 4 | – | – |
| O=C(c1cc(Cn2c(=O)[nH]c(=O)c3ccccc32)ccc1F)N1CCN(c2ccccn2)CC1 [Example 24, 1-(4-Fluoro-3-(4-(pyridin-2-yl)piperazine-1-carbonyl)benzyl)quinazoline-2,4(1H,3H)-dione] | 26 | 735 | 20 | – | – |
| O=C(c1cccc(Cn2c(=O)[nH]c(=O)c3ccccc32)c1)N1CCN(C(=O)C2CCCCC2)CC1 [Example 26, 1-(3-(4-(Cyclohexylcarbonyl)piperazine-1-carbonyl)benzyl)quinazoline-2,4(1H,3H)-dione] | 149 | 400 | 20 | – | – |
| O=C(c1cccc(Cn2c(=O)[nH]c(=O)c3ccccc32)c1)N1CCN(c2nsc3ccccc23)CC1 [Example 27, 1-(3-(4-(Benzo[d]isothiazol-3-yl)piperazine-1-carbonyl)benzyl)quinazoline-2,4(1H,3H)-dione] | 83 | 281 | 51 | – | – |
| O=C(c1cccc(Cn2c(=O)[nH]c(=O)c3ccccc32)c1)N1CCN(C(=O)C2CCC2)CC1 [Example 30, 1-(3-(4-(Cyclobutylcarbonyl)piperazine-1-carbonyl)benzyl)quinazoline-2,4(1H,3H)-dione] | 119 | 1780 | 39 | – | – |
| O=C(c1cc(Cn2c(=O)[nH]c(=O)c3ccccc32)ccc1F)N1CCN(C(=O)C2CC2)CC1 [Example 40, 1-(3-(4-(Cyclopropylcarbonyl)piperazine-1-carbonyl)-4-fluorobenzyl)quinazoline-2,4(1H,3H)-dione] | 182 | 1740 | 29 | – | – |
| O=C(c1cc(Cn2c(=O)[nH]c(=O)c3cc(F)ccc32)ccc1F)N1CCN(c2nccs2)CC1 [Example 188, 6-Fluoro-1-(4-fluoro-3-(4-(thiazol-2-yl)piperazine-1-carbonyl)benzyl)quinazoline-2,4(1H,3H)-dione] | 7.8 | 472 | – | – | – |
| O=C(c1cc(Cn2c(=O)[nH]c(=O)c3ccccc32)ccc1F)N1CCN(c2nccs2)CC1 [Example 190, 1-(4-Fluoro-3-(4-(thiazol-2-yl)piperazine-1-carbonyl)benzyl)quinazoline-2,4(1H,3H)-dione] | 21 | 1380 | – | – | – |
| O=C(c1cc(Cn2c(=O)[nH]c(=O)c3c(F)cccc32)ccc1Br)N1CCN(c2ncccn2)CC1 [Example 215, 1-(4-Bromo-3-(4-(pyrimidin-2-yl)piperazine-1-carbonyl)benzyl)-5-fluoroquinazoline-2,4(1H,3H)-dione] | 1390 | – | 743 | – | – |
| O=C(c1cccc(Cn2c(=O)[nH]c(=O)c3cc4c(cc32)OCO4)c1)N1CCN(c2ncccn2)CC1 [Example 216, 6,7-Methylenedioxo-1-(3-(4-(pyrimidin-2-yl)piperazine-1-carbonyl)benzyl)quinazoline-2,4(1H,3H)-dione] | – | – | – | > 10000 | > 10000 |
| O=C(c1cccc(Cn2c(=O)[nH]c(=O)c3cccc(F)c32)c1)N1CCN(c2ncccn2)CC1 [Example 218, 8-Fluoro-1-(3-(4-(pyrimidin-2-yl)piperazine-1-carbonyl)benzyl)quinazoline-2,4(1H,3H)-dione] | 103 | – | 37 | – | – |
| Nc1ccc2c(c1)c(=O)[nH]c(=O)n2Cc1cccc(C(=O)N2CCN(c3ncccn3)CC2)c1 [Example 219, 6-Amino-1-(3-(4-(pyrimidin-2-yl)piperazine-1-carbonyl)benzyl)quinazoline-2,4(1H,3H)-dione] | 481 | – | 445 | – | – |
| O=C(c1ccccc1Cn1c(=O)[nH]c(=O)c2ccccc21)N1CCN(c2ncccn2)CC1 [Example 220, 1-(2-(4-(Pyrimidin-2-yl)piperazine-1-carbonyl)benzyl)quinazoline-2,4(1H,3H)-dione] | > 10000 | – | > 10000 | – | – |
| O=C(c1cccc(-n2c(=O)[nH]c(=O)c3ccccc32)c1)N1CCN(c2ncccn2)CC1 [Example 221, 1-(3-(4-(Pyrimidin-2-yl)piperazine-1-carbonyl)phenyl)quinazoline-2,4(1H,3H)-dione] | > 10000 | – | > 10000 | – | – |
| O=C(c1cccc(Cn2c(=O)[nH]c3c(Cl)cccc3c2=O)c1)N1CCN(c2ncccn2)CC1 [Example 223, 8-Chloro-3-(3-(4-(pyrimidin-2-yl)piperazine-1-carbonyl)benzyl)quinazoline-2,4(1H,3H)-dione] | > 10000 | – | > 10000 | – | – |
| O=C(c1cccc(Cn2c(=O)[nH]c(=O)c3cccc(Cl)c32)c1)N1CCN(c2ncccn2)CC1 [Example 224, 8-Chloro-1-(3-(4-(pyrimidin-2-yl)piperazine-1-carbonyl)benzyl)quinazoline-2,4(1H,3H)-dione] | 1110 | – | 274 | – | – |
| Cc1cccc2c(=O)n(Cc3cccc(C(=O)N4CCN(c5ncccn5)CC4)c3)c(=O)[nH]c12 [Example 225, 8-Methyl-3-(3-(4-(pyrimidin-2-yl)piperazine-1-carbonyl)benzyl)quinazoline-2,4(1H,3H)-dione] | > 10000 | – | > 10000 | – | – |
| Cc1cccc2c(=O)[nH]c(=O)n(Cc3cccc(C(=O)N4CCN(c5ncccn5)CC4)c3)c12 [Example 226, 8-Methyl-1-(3-(4-(pyrimidin-2-yl)piperazine-1-carbonyl)benzyl)quinazoline-2,4(1H,3H)-dione] | 84 | – | 24 | – | – |
| COc1cccc2c(=O)[nH]c(=O)n(Cc3cccc(C(=O)N4CCN(c5ncccn5)CC4)c3)c12 [Example 227, 8-Methoxy-1-(3-(4-(pyrimidin-2-yl)piperazine-1-carbonyl)benzyl)quinazoline-2,4(1H,3H)-dione] | 13 | – | 40 | – | – |
| O=C(c1cccc(Cn2c(=O)[nH]c3ccccc3c2=O)c1)N1CCN(c2ncccn2)CC1 [Example 228, 3-(3-(4-(Pyrimidin-2-yl)piperazine-1-carbonyl)benzyl)quinazoline-2,4(1H,3H)-dione] | > 10000 | – | > 10000 | – | – |
| O=C(c1cccc(CCn2c(=O)[nH]c(=O)c3ccccc32)c1)N1CCN(c2ncccn2)CC1 [Example 229, 1-(3-(4-(Pyrimidin-2-yl)piperazine-1-carbonyl)phenethyl)quinazoline-2,4(1H,3H)-dione] | > 10000 | – | > 10000 | – | – |
| O=C(c1cccc(Cn2c(=O)[nH]c(=O)c3cccc(O)c32)c1)N1CCN(c2ncccn2)CC1 [Example 230, 8-Hydroxy-1-(3-(4-(pyrimidin-2-yl)piperazine-1-carbonyl)benzyl)quinazoline-2,4(1H,3H)-dione] | 2.6 | – | 3.2 | – | – |
